Experimental data from patent US20090111781A1, “Use of Cymipristone Type Compounds in Aids Treatment” (SHANGHAI THREE-ALLIANCE BIOTECHNOLOGIES CO., LTD., priority 2005, published 2009).
Converted amounts (≈) assume the structure as drawn.

Tests used:
[1] = molecular target: T1, estrogen receptor ERα (Homo sapiens, UniProt P03372); test: Binding activity on human nuclear receptor ERα; conditions: mean ± SD, n = 4
T1 sequence (P03372 1-595): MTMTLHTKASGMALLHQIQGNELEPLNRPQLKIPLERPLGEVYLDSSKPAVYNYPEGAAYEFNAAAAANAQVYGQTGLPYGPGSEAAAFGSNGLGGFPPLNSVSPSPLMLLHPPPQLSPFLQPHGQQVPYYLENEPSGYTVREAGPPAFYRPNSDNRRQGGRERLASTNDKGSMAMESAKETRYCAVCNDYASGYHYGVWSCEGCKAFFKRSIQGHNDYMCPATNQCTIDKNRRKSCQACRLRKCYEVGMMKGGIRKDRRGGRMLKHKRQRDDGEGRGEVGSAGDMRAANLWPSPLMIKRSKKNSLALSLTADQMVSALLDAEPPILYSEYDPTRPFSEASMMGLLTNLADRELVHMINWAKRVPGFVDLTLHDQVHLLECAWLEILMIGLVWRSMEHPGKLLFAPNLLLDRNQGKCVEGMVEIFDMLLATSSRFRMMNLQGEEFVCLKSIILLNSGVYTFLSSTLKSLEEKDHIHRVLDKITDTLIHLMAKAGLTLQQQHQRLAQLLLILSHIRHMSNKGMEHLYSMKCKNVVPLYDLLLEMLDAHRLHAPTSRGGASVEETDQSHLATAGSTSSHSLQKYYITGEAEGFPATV
Method: Buffer solution is composed of 25 mM NaPO4, 20 mM NaMoO4, 10 mM KF and 10% glycerol (pH=7.3) and stored under 4° C. Stock solution is prepared with CHAPS and DTT and stored under −20° C. […] Add 2.5 μl/hole into 96-pore plate. Take out appropriate amount of buffer solution reserve into solution to make the final concentration of CHAPS and DDT to become 0.25 mM and 2 mM respectively. Add protease inhibitors (aprotinin and leupeptin) to make its final concentration to become 1 μg/μl, and place in an ice bath. After adding human nuclear receptor GR (1:8), PR (1:100), ER (1:2000), AR (1:200) and MR (1:40) into the reaction system respectively, adequately mix suitable quantity of [^3H]-dexamethasone, [^3H]-progesterone, [^3H]-estradiol and [^3H]-DHT (from Amersham), rapidly add into 96-pore plate (100 μl/pore) and incubate overnight under 4° C. On the next day, add 25 μl of hydroxyapatite suspension into each pore and mix with shaking. After incubating for 10 min, separate by centrifuge for 3 min at 2500 rpm. The precipitate is washed with 100 μl of buffer solution and separated by centrifuge twice. Add 150 μl of scintillation solution (from Perkin Elmer) into each pore, mix with shaking and count by MicroBeta counter.

[2] = molecular target: T2, human glucocorticoid receptor (GR) (Homo sapiens, UniProt P04150); test: Binding activity on human nuclear receptor GR ([3H]-dexamethasone competition); conditions: mean ± SD, n = 4
T2 sequence (P04150 1-777): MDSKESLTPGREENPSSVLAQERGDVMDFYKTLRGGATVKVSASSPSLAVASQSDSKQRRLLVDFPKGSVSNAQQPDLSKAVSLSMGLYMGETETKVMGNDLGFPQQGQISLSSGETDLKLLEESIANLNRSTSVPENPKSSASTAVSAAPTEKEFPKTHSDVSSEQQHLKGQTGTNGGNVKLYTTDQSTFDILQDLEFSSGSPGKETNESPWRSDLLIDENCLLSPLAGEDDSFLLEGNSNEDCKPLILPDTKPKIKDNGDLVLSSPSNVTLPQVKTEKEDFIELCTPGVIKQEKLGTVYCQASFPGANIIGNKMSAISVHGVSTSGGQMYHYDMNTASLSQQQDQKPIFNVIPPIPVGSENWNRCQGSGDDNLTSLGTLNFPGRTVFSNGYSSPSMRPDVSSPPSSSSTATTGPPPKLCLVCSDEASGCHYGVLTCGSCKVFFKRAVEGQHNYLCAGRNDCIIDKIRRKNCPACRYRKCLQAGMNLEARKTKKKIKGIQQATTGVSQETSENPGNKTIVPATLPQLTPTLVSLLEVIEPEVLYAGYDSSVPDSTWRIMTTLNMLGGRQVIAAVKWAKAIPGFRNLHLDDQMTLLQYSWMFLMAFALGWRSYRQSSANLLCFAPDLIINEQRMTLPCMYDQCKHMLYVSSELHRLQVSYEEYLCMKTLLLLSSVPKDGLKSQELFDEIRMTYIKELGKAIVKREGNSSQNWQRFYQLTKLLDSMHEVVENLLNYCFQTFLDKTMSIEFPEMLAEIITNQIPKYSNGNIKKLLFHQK

[3] = tested on: MT-4 cells; test: Cytotoxicity in MT-4 cell culture by MTT staining method; format: cell-based, human
Method: (§1) Set virus TCID50 determination group and cell control group. Each concentration is duplicated in two pore. Incubate under 37° C., 5% CO2 and saturated humidity in an incubator. Add MTT into each pore of cell culture plate pipetted supernatant liquid to stain, continue to incubate for 4 hours, add decolorizing liquid, determine OD value at 570 nm wavelength by enzyme-linked apparatus, and [NT]50 and TC0 as above. […] [formula]

[4] = as above; format: cell-based, human; conditions: human, MT-4 cells infected with HIV-1 IIIB; MT-4 cell culture, MTT staining; read-out: Cytotoxicity TC50, MTT
Method: as §1

[5] = MTT toxicity on PBMC infected by HIV-1 AZT-resistant strain 018c; conditions: human
Method: Collect cells with curette, infect cells with 10^−2 AZT sensitive (018a) or AZT resistant (018c) virus strain liquid, and adsorb for 2 hours, Wash off unabsorbed virus with 1640 culture medium without serum, prepare cells infected by virus to 1×10^6/ml with culture solution, and inoculate on 96-pore culture plate, 100 μl/pore. […] Set cell control group and virus infected cell control group. Incubate under 37° C. and 5% CO2. On the fourth day (96 hours), pipette out the supernatant liquid and store under −20° C. for determination of HIV-1 P24 antigen titer and calculation of drug inhibitory action. Add MTT staining to cells for determination of cytotoxicity. Determination of cytotoxicity by MTT staining: Add 10 μl of 5 mg/ml MTT stain into each pore, continue to incubate under 37° C., 5% CO2 and saturated humidity for 4 hours. […] Determine the HIV-1 P24 antigen titer according to the operation procedure provided by the HIV-1 P24 antigen reagent kit. Compare the drug-added group with virus control group. […] Calculation method of 50% toxic concentration (CC50), 50% effective concentration (EC50) and selection index (SI): […]

SMILES: CC#C[C@]1(O)CC[C@H]2[C@@H]3CCC4=CC(=O)CCC4=C3[C@@H](c3ccc(N(C)C4CCCCC4)cc3)C[C@@]21C [Cymipristone, 11β-[4-(N-methyl-N-cyclohexylamino)phenyl]-17α-(1-propynyl)-17β-hydroxyl-4,9-estradiene-3-one]
- IC50 [1]: 516 ± 62.8 nM
- IC50 [2]: 0.45 ± 0.069 nM
- Cytotoxicity TC50, MTT ([3]; MT-4 cell culture, MTT staining): 30.26 µg/mL
- Toxicity on cultured human T-lymphocyte MT-4 (in words) ([3]; conclusion): no significant toxicity
- CC50 at 96 h [4]: 60900 nM
- CC50 at 96 h ([5]; 50% toxic concentration CC50, Experiment 1): 103 µg/mL (≈ 207 µM)
- CC50 at 96 h ([5]; 50% toxic concentration CC50, Experiment 2): 104 µg/mL (≈ 210 µM)
